Values after ≈ are worked out from the molar mass of the structure shown.
Experiments:
[1] = cited from earlier work
[2] = Solubility limit in 1 M NaOH; assay type: physicochemical; conditions: aqueous buffer
Source text: In one embodiment, the phenazine derivative is present in the electrolyte at a concentration within a range of 0.01 M to 4 M. In an independent embodiment, the phenazine derivative is present in the electrolyte at a concentration within a range of from 4 M to 8 M. Certain embodiments of the phenazine derivatives provide 2 moles of electron transfer per mole of the compound, thus providing, for example, 2 M electron transfer when the phenazine derivative concentration is 1 M.

[3] = Cyclic voltammetry in 1 M NaOH; assay type: physicochemical; conditions: scan rate 100 mV/sec, 8.5 mM
Protocol: Electrochemical Methods: Cyclic voltammetry experiments were performed with a CH Instruments model 660C potentiostat using a glassy carbon working electrode, a platinum wire counter electrode, and a Ag/AgCl reference electrode.
[…]. This potential exceeds all other aqueous organic flow battery systems reported to date, which, combining the high effective electron concentration resulted from high solubility, leads to high theoretical energy densities.

solubility [2] [mM]	redox couple (vs. Ag/AgCl) [3] [V]	Structure (SMILES)	solubility in water [1]
		c1ccc2nc3ccccc3nc2c1 [phenazine]	insoluble in water
1450 (≈ 424 mg/mL)	−1.08	O=S(=O)(O)c1ccc2nc3cc(O)c(O)cc3nc2c1 [DHPS, 7,8-dihydroxy-phenazine-2-sulfonic acid]	
